Key:
Type in all cases: organism-based
Zea mays [1] = assay: Toxicity in Zea mays GG446 (maize) assessed as visible injury at 50 g ai/ha applied shortly post-emergence at three to five-leaf stage using backpack sprayer measured after 7 days; settings: in vivo, other, 168 h
Zea mays [2] = assay: Toxicity in Zea mays GG446 (maize) assessed as marketable yield at 50 g ai/ha applied shortly post-emergence at three to five-leaf stage using backpack sprayer (reference value: 20.0 T/ha ); settings: in vivo, other
Zea mays [3] = assay: Toxicity in Zea mays GH2547 (maize) assessed as plant height at 50 g ai/ha applied shortly post-emergence at three to five-leaf stage using backpack sprayer measured after 21 days (Rvb =80 cm); settings: in vivo, other, 504 h
Zea mays [4] = assay: Toxicity in Zea mays Empire (maize) assessed as visible injury at 50 g ai/ha applied shortly post-emergence at three to five-leaf stage using backpack sprayer measured after 28 days; settings: in vivo, other, 672 h
Zea mays [5] = assay: Toxicity in Zea mays GH2547 (maize) assessed as visible injury at 50 g ai/ha applied shortly post-emergence at three to five-leaf stage using backpack sprayer measured after 7 days; settings: in vivo, other, 168 h
Zea mays [6] = assay: Toxicity in Zea mays Empire (maize) assessed as visible injury at 25 g ai/ha applied shortly post-emergence at three to five-leaf stage using backpack sprayer measured after 28 days; settings: in vivo, other, 672 h
Zea mays [7] = assay: Toxicity in Zea mays GG214 (maize) assessed as marketable yield at 25 g ai/ha applied shortly post-emergence at three to five-leaf stage using backpack sprayer (reference value: 14.2 T/ha ); settings: in vivo, other
Zea mays [8] = assay: Toxicity in Zea mays GG446 (maize) assessed as visible injury at 25 g ai/ha applied shortly post-emergence at three to five-leaf stage using backpack sprayer measured after 7 days; settings: in vivo, other, 168 h
Zea mays [9] = assay: Toxicity in Zea mays GG446 (maize) assessed as cob size at 25 g ai/ha applied shortly post-emergence at three to five-leaf stage using backpack sprayer (reference value: 379 g); settings: in vivo, other
Zea mays [10] = assay: Toxicity in Zea mays GH2684 (maize)assessed as visible injury at 25 g ai/ha applied shortly post-emergence at three to five-leaf stage using backpack sprayer measured after 14 days; settings: in vivo, other, 336 h
Zea mays [11] = assay: Toxicity in Zea mays GH2547 (maize) assessed as visible injury at 50 g ai/ha applied shortly post-emergence at three to five-leaf stage using backpack sprayer measured after 28 days; settings: in vivo, other, 672 h
Zea mays [12] = assay: Toxicity in Zea mays GH2298 (maize) assessed as plant height at 25 g ai/ha applied shortly post-emergence at three to five-leaf stage using backpack sprayer measured after 21 days (Rvb =80 cm); settings: in vivo, other, 504 h
Zea mays [13] = assay: Toxicity in Zea mays GH2041 (maize) assessed as marketable yield at 25 g ai/ha applied shortly post-emergence at three to five-leaf stage using backpack sprayer (reference value: 12.2 T/ha ); settings: in vivo, other
Zea mays [14] = assay: Toxicity in Zea mays Empire (maize) assessed as plant height at 50 g ai/ha applied shortly post-emergence at three to five-leaf stage using backpack sprayer measured after 21 days (Rvb =73 cm); settings: in vivo, other, 504 h
Zea mays [15] = assay: Toxicity in Zea mays Empire (maize) assessed as visible injury at 25 g ai/ha applied shortly post-emergence at three to five-leaf stage using backpack sprayer measured after 14 days; settings: in vivo, other, 336 h
Zea mays [16] = assay: Toxicity in Zea mays GH2547 (maize) assessed as cob size at 50 g ai/ha applied shortly post-emergence at three to five-leaf stage using backpack sprayer (reference value: 315 g); settings: in vivo, other
Zea mays [17] = assay: Toxicity in Zea mays GH2547 (maize) assessed as marketable yield at 50 g ai/ha applied shortly post-emergence at three to five-leaf stage using backpack sprayer (reference value: 16.7 T/ha ); settings: in vivo, other
Zea mays [18] = assay: Toxicity in Zea mays GH2547 (maize) assessed as plant height at 25 g ai/ha applied shortly post-emergence at three to five-leaf stage using backpack sprayer measured after 21 days (Rvb =80 cm); settings: in vivo, other, 504 h
Zea mays [19] = assay: Toxicity in Zea mays GH2041 (maize) assessed as visible injury at 25 g ai/ha applied shortly post-emergence at three to five-leaf stage using backpack sprayer measured after 7 days; settings: in vivo, other, 168 h
Zea mays [20] = assay: Toxicity in Zea mays GH2298 (maize) assessed as visible injury at 25 g ai/ha applied shortly post-emergence at three to five-leaf stage using backpack sprayer measured after 28 days; settings: in vivo, other, 672 h
Zea mays [21] = assay: Toxicity in Zea mays GG214 (maize) assessed as cob size at 25 g ai/ha applied shortly post-emergence at three to five-leaf stage using backpack sprayer (reference value: 292 g); settings: in vivo, other
Zea mays [22] = assay: Toxicity in Zea mays GH2547 (maize) assessed as visible injury at 50 g ai/ha applied shortly post-emergence at three to five-leaf stage using backpack sprayer measured after 14 days; settings: in vivo, other, 336 h
Zea mays [23] = assay: Toxicity in Zea mays GH2684 (maize) assessed as plant height at 25 g ai/ha applied shortly post-emergence at three to five-leaf stage using backpack sprayer measured after 21 days (Rvb =73 cm); settings: in vivo, other, 504 h
Zea mays [24] = assay: Toxicity in Zea mays Empire (maize) assessed as reduction in marketable yield at 25 g ai/ha applied shortly post-emergence at three to five-leaf stage using backpack sprayer; set-up: scale not given: the % may be the effect or the level left; settings: in vivo, other
Zea mays [25] = assay: Toxicity in Zea mays GH2684 (maize) assessed as marketable yield at 50 g ai/ha applied shortly post-emergence at three to five-leaf stage using backpack sprayer (reference value: 15.5 T/ha ); settings: in vivo, other
Zea mays [26] = assay: Toxicity in Zea mays GH2684 (maize) assessed as plant height at 50 g ai/ha applied shortly post-emergence at three to five-leaf stage using backpack sprayer measured after 21 days (Rvb =73 cm); settings: in vivo, other, 504 h
Zea mays [27] = assay: Toxicity in Zea mays GSS9299 (maize) assessed as plant height at 50 g ai/ha applied shortly post-emergence at three to five-leaf stage using backpack sprayer measured after 21 days (Rvb =69 cm); settings: in vivo, other, 504 h
Zea mays [28] = assay: Toxicity in Zea mays GSS9299 (maize) assessed as visible injury at 25 g ai/ha applied shortly post-emergence at three to five-leaf stage using backpack sprayer measured after 28 days; settings: in vivo, other, 672 h
Zea mays [29] = assay: Toxicity in Zea mays GSS9299 (maize) assessed as plant height at 25 g ai/ha applied shortly post-emergence at three to five-leaf stage using backpack sprayer measured after 21 days (Rvb =69 cm); settings: in vivo, other, 504 h

COc1cc(OC)nc(NC(=O)NS(=O)(=O)c2c(C(=O)O)c(Cl)nn2C)n1 [HALOSULFURON]
Activity (Zea mays [1]): 0%
Crop_yield (Zea mays [2]): 19.6 tons/ha
Activity (Zea mays [3]): 79 cm
Activity (Zea mays [4]): 1%
Activity (Zea mays [5]): 2%
Activity (Zea mays [6]): 0%
Crop_yield (Zea mays [7]): 13.4 tons/ha
Activity (Zea mays [8]): 0%
Activity (Zea mays [9]): 370 g
Activity (Zea mays [10]): 3%
Activity (Zea mays [11]): 0%
Activity (Zea mays [12]): 76 cm
Crop_yield (Zea mays [13]): 11.8 tons/ha
Activity (Zea mays [14]): 69 cm
Activity (Zea mays [15]): 3%
Activity (Zea mays [16]): 312 g
Crop_yield (Zea mays [17]): 15.7 tons/ha
Activity (Zea mays [18]): 78 cm
Activity (Zea mays [19]): 1%
Activity (Zea mays [20]): 0%
Activity (Zea mays [21]): 293 g
Activity (Zea mays [22]): 0%
Activity (Zea mays [23]): 76 cm
Activity (Zea mays [24]): 14%
Crop_yield (Zea mays [25]): 15.2 tons/ha
Activity (Zea mays [26]): 73 cm
Activity (Zea mays [27]): 68 cm
Activity (Zea mays [28]): 0%
Activity (Zea mays [29]): 68 cm

From ChEMBL document CHEMBL3046257, “Response of sweet maize (Zea mays L.) hybrids to halosulfuron” (Crop Prot, 2008)
